We go through 53 molecules from patent US7446195B2, “High affinity thiophene-based and furan-based kinase ligands” (Schering Corporation, priority 2005, dated 2008).

Each structure is given as a SMILES string.

The term IC50 denotes the concentration that gives 50% inhibition.

The target in this experiment is CDK-2 (Homo sapiens, UniProt P24941). Kind of experiment: CDK-2 inhibition (Table 1; fluorescence polarization displacement assay). Format: binding. The note with it: inhibitory effectiveness toward CDK-2. On the procedure:
The affinity of lead inhibitors binding to CDK-2 and CDK-2/cyclin A were determined by measuring a Ki value using a fluorescence polarization displacement assay. The deacetylated form of compound BMS-250595 was reacted with Alexa Fluor 647 to generate a compound (BMS-Alexa Fluor647) that bound to both proteins and provided a signal for fluorescence polarization displacement. Binding assays were performed in a 384 well Costar NBS coated plate. A total volume of […] contained concentrations of CDK-2 or CDK-2/cyclin A at […], respectively. The concentration of BMS-Alexa Fluor647 was 50 nM. Serial dilutions of compounds were added to 12 wells. The final buffer concentration was 10 mM Hepes, pH 7.5, 150 mM NaCl, and 1 mM DTT. Samples were incubated at room temperature for 15 minutes and then read in an Analyst HT instrument using an excitation and emission wavelength of 580 and 680 nm, respectively. The […] curve fitting tool described by Zhang et al., 2004 (Zhang R., Mayhood T., Lipari P., Wang Y., Durkin D., Syto R., Gesell J., McNemar C., and Windsor W., Analytical Biochemistry 331 (2004) 138-146)
In the case of `O=C(Nc1ccc(-n2cncn2)c(F)c1)c1ccc(C(=O)Nc2ccccc2OCc2ccccc2)s1` [Compound 200], the IC50 was at least 40 µM. In turn, `O=C(Nc1ccc(-n2cncn2)cc1)c1ccc(C(=O)Nc2ccccn2)s1` [Compound 90] had a half-maximal inhibitory concentration (IC50) of at least 40 µM.

Turning to `O=C(Nc1ccc(-n2cncn2)cc1)c1ccc(C(=O)NC2CCNCC2)s1` [Compound 139], the half-inhibitory concentration (IC50) is at least 40 µM.

In turn, `COc1ccccc1NC(=O)c1ccc(C(=O)Nc2ccc(-n3cncn3)c(F)c2)s1` [Compound 206] yielded an IC50 of at least 40 µM.

On to `COc1ccc(NC(=O)c2ccc(C(=O)Nc3ccc(Cn4ccnc4)cc3)s2)c(C)c1` [Compound 177], for which the IC50 was at least 40 µM. The result for `Cc1ccccc1C(=O)Nc1ccc(C(=O)Nc2ccc(-n3cncn3)cc2)o1` [Compound 184] reads at least 40 µM.

In turn, `O=C(NC[C@@H]1CCCO1)c1ccc(C(=O)Nc2ccc(-n3cncn3)cc2)s1` [Compound 94] gave a half-inhibitory concentration (IC50) of at least 40 µM. In the case of `O=C(Nc1ccncc1)c1ccc(C(=O)Nc2ccc(-n3cncn3)cc2)o1` [Compound 69] it was 1 to 40 µM; in that of `C[C@@H](NC(=O)c1ccc(C(=O)Nc2ccc(-n3cncn3)c(F)c2)o1)C1CCCCC1` [Compound 43], 1 to 40 µM.

`COc1ccc(NC(=O)c2ccc(C(=O)Nc3ccc(N4CCNCC4)cc3)s2)c(C)c1` [Compound 122] had an IC50 of at least 40 µM.

Consider `COc1ccc(NC(=O)c2ccc(C(=O)Nc3ccc(-n4cncn4)cc3)s2)cc1F` [Compound 149], for which the IC50 was at least 40 µM. The result for `Cc1cc(N(C)CCN(C)C)ccc1NC(=O)c1ccc(C(=O)Nc2ccc(-n3cncn3)cc2)s1` [Compound 36] reads at most 1 µM; that for `COc1ccc(NC(=O)c2ccc(C(=O)Nc3ccc4c(cnn4C)c3)s2)c(C)c1` [Compound 171], at least 40 µM. The result for `Cc1cc(NC(=O)c2ccc(C(=O)Nc3ccc(-n4cncn4)cc3)s2)ccc1F` [Compound 142] reads at least 40 µM.

In turn, `Cc1cc(CNC(=O)c2ccc(C(=O)Nc3ccc(-n4cncn4)cc3)s2)no1` [Compound 105] registered a half-maximal inhibitory concentration (IC50) of at least 40 µM.

`O=C(NCCN1CCNC1=O)c1ccc(C(=O)Nc2ccc(-n3cncn3)cc2)s1` [Compound 146] returned an IC50 of at least 40 µM.

`COc1ccc(NC(=O)c2ccc(C(=O)Nc3ccc(-c4ncn(C)n4)cc3)s2)c(C)c1` [Compound 179] displayed an IC50 of at least 40 µM. The result for `COC(=O)c1ccc(NC(=O)c2ccc(C(=O)Nc3ccc(OC)cc3C)s2)cc1` [Compound 126] reads at least 40 µM; that for `Cc1cc(NC(=O)c2ccc(C(=O)Nc3ccc(-n4cncn4)cc3)s2)n(C)n1` [Compound 67], 1 to 40 µM; that for `O=C(Nc1ccc(-n2cncn2)cc1)c1ccc(C(=O)N2CCc3ccccc3C2)s1` [Compound 74], 1 to 40 µM. The molecule `Cc1cc(NCCN(C)C)ccc1NC(=O)c1ccc(C(=O)Nc2ccc(-n3cncn3)cc2)s1` [Compound 44] returned a half-inhibitory concentration (IC50) of 1 to 40 µM.

For `COc1ccc(C(=O)Nc2ccc(C(=O)N3CCC(Oc4cnccn4)CC3)o2)c(C)c1` [Compound 192], the IC50 is at least 40 µM. In the case of `COc1ccc(NC(=O)c2ccc(C(=O)Nc3ccc(-c4c(C)noc4C)cc3)s2)c(C)c1` [Compound 168] it was at least 40 µM. In the case of `O=C(Nc1ccc(-n2cncn2)cc1)c1ccc(C(=O)N2CCN(c3ccccc3)CC2)s1` [Compound 117] it was at least 40 µM; in that of `O=C(Nc1ccc(-n2cncn2)cc1)c1ccc(C(=O)NC2Cc3ccccc3C2)s1` [Compound 114], at least 40 µM.

For `CN(Cc1ccccc1)C(=O)c1ccc(C(=O)Nc2ccc(-n3cncn3)cc2)s1` [Compound 107], the IC50 is at least 40 µM.

`CN1CCC(NC(=O)c2ccc(C(=O)Nc3ccc(-n4cncn4)c(F)c3)o2)CC1` [Compound 214]: the IC50 is at least 40 µM. In the case of `COc1ccc(NC(=O)c2ccc(C(=O)Nc3ccc(-n4cncn4)cc3)s2)c(C(=O)O)c1` [Compound 79] it was 1 to 40 µM; in that of `NS(=O)(=O)c1ccc(NC(=O)c2ccc(C(=O)Nc3ccc(-n4cncn4)cc3)s2)cc1` [Compound 118], at least 40 µM; in that of `O=C(NCCc1ccccn1)c1ccc(C(=O)Nc2ccc(-n3cncn3)cc2)s1` [Compound 156], at least 40 µM. The result for `O=C(Nc1ccc(C(=O)Nc2ccc(-n3cncn3)cc2)s1)c1ccccc1` [Compound 40] reads at most 1 µM; that for `O=C(Nc1ccc(-n2cncn2)cc1)c1ccc(C(=O)Nc2nc3c(s2)CCCC3)s1` [Compound 60], 1 to 40 µM. The molecule `COc1ccc(C(=O)Nc2ccc(C(=O)N3CCC(Oc4cnccn4)CC3)s2)c(C)c1` [Compound 76] yielded a half-maximal inhibitory concentration (IC50) of 1 to 40 µM. In the case of `COc1ccc(NC(=O)c2ccc(C(=O)Nc3ccc(-n4cncn4)cc3)s2)cc1O` [Compound 167] it was at least 40 µM; in that of `O=C(Nc1ccc(-n2cncn2)c(F)c1)c1ccc(C(=O)N[C@H]2CC[C@H](O)CC2)o1` [Compound 49], 1 to 40 µM. In the case of `CN(Cc1ccco1)C(=O)c1ccc(C(=O)Nc2ccc(-n3cncn3)cc2)s1` [Compound 102], the half-inhibitory concentration (IC50) was at least 40 µM. Turning to `COc1ccc(NC(=O)c2ccc(C(=O)Nc3cccc(-c4cnco4)c3)s2)c(C)c1` [Compound 134], the IC50 is at least 40 µM.

On to `O=C(NCC1CCCCC1)c1ccc(C(=O)Nc2ccc(-n3cncn3)cc2)s1` [Compound 106], for which the half-maximal inhibitory concentration (IC50) was at least 40 µM. On to `O=C(NCc1ccccn1)c1ccc(C(=O)Nc2ccc(-n3cncn3)cc2)s1` [Compound 97], for which the half-maximal inhibitory concentration (IC50) is at least 40 µM.

As to `O=C(Nc1ccc(-n2cncn2)cc1)c1ccc(C(=O)Nc2ccc3c(c2)C(=O)OC3)s1` [Compound 160], the half-maximal inhibitory concentration (IC50) is at least 40 µM.

`O=C(Nc1ccc(-n2cncn2)cc1)c1ccc(NC(=O)C2CCCCC2)o1` [Compound 187] registered an IC50 of at least 40 µM. In the case of `O=C(Nc1ccc(-n2cncn2)cc1)c1ccc(C(=O)N[C@H]2CCc3ccccc32)s1` [Compound 56] it was 1 to 40 µM. The result for `COc1ccc(NC(=O)c2ccc(C(=O)Nc3ccc(-c4nc[nH]n4)c(F)c3)o2)c(C)c1` [Compound 7] reads at most 1 µM; that for `Cn1nc(-c2cccs2)cc1NC(=O)c1ccc(C(=O)Nc2ccc(-n3cncn3)cc2)s1` [Compound 195], at least 40 µM; that for `Cc1cccc(NC(=O)c2ccc(C(=O)Nc3ccc(-n4cncn4)cc3)s2)n1` [Compound 101], at least 40 µM. In the case of `Cc1cnc(NC(=O)c2ccc(C(=O)Nc3ccc(-n4cncn4)cc3)s2)s1` [Compound 155] it was at least 40 µM; in that of `O=C(Nc1ccc(-n2cncn2)cc1)c1ccc(C(=O)Nc2nc3ccccc3s2)s1` [Compound 58], 1 to 40 µM.

In the case of `O=C(Nc1ccc(-n2cncn2)c(F)c1)c1ccc(C(=O)Nc2ccccc2N2CCOCC2)s1` [Compound 207], the IC50 was at least 40 µM. With `Cc1cc(OCCN2CCOCC2)ccc1NC(=O)c1ccc(C(=O)Nc2ccc(-n3cncn3)cc2)s1` [Compound 11], the IC50 was at most 1 µM. `COc1ccc(NC(=O)c2ccc(C(=O)Nc3ccc(-n4cncn4)cc3)o2)cc1` [Compound 35]: the IC50 is at most 1 µM. `CC(C)NC(=O)c1ccc(C(=O)Nc2ccc(-n3cncn3)cc2)s1` [Compound 81] displayed an IC50 of at least 40 µM. In the case of `O=C(NCCc1cccnc1)c1ccc(C(=O)Nc2ccc(-n3cncn3)cc2)s1` [Compound 78] it was 1 to 40 µM; in that of `Cc1cc(O)ccc1NC(=O)c1ccc(C(=O)Nc2ccc(-n3cncn3)cc2)s1` [Compound 33], at most 1 µM.
